The values that follow come from patent US20070099877A1, “N-aryl-thienopyrimidin-4-amines and analogs as activators of caspases and inducers of apoptosis and the use thereof” (Cytovia, Inc., priority 2005, published 2007).

Bounds are passed on as bounds.

The test system of one test is human breast cancer cell line T-47D. Kind of test: Caspase cascade activation (DEVD-R110 fluorogenic substrate) in T-47D cells. In kind it is cell-based. Particulars: Homo sapiens, T47D, 48 h, T-47D cells, 48 h; read-out: Caspase activation Potency EC50 T-47D (48 h). How it is done:
(§1) Human breast cancer cell line T-47D, human lung cancer cell line H1299, human hepatocellular carcinoma cell line SNU398, human colon carcinoma cell line HCT116 were grown according to media component mixtures designated by American Type Culture Collection+10% FCS (Invitrogen Corporation), in a 5% CO2-95% humidity incubator at 37° C. T-47D and H1299 cells were maintained at a cell density between 50 and 80% confluency at a cell density of 0.1 to 0.6×10^6 cells/mL. Cells were harvested at 600×g and resuspended at 0.65×10^6 cells/mL into appropriate media+10% FCS. An aliquot of 22.5 μL of cells was added to a well of a 384-well microtiter plate containing 2.5 μL of a 10% DMSO in RPMI-1640 media solution containing 0.16 to 100 μM of N-(2,5-dimethoxyphenyl)-2-methylthieno[3,2-d]pyrimidin-4-amine or other test compound (0.016 to 10 μM final). An aliquot of 22.5 μL of cells was added to a well of a 384-well microtiter plate containing 2.5 μL of a 10% DMSO in RPMI-1640 media solution without test compound as the control sample. The samples were mixed by agitation and then incubated at 37° C. for 24 h or 48 h in a 5% CO2-95% humidity incubator. After incubation, the samples were removed from the incubator and 25 μL of a solution containing 14 μM of N-(Ac-DEVD)-N′-ethoxycarbonyl-R110 (SEQ ID NO.:1) fluorogenic substrate (Cytovia, Inc.; WO99/18856), 20% sucrose (Sigma), 20 mM DTT (Sigma), 200 mM NaCl (Sigma), 40 mM Na PIPES buffer pH 7.2 (Sigma), and 500 μg/mL lysolecithin (Calbiochem) was added. The samples were mixed by agitation and incubated at room temperature. Using a fluorescent plate reader (Model SPECTRAfluor Plus, Tecan), an initial reading (T=0) was made approximately 1-2 min after addition of the substrate solution, employing excitation at 485 nm and emission at 530 nm, to determine the background fluorescence of the control sample. After the 3 h incubation, the samples were read for fluorescence as above (T=3 h).
(§2) The Relative Fluorescence Unit values (RFU) were used to calculate the sample readings as follows: RFU(T=3h)−Control RFU(T=O)=Net RFU(T=3h)
(§3) The activity of caspase cascade activation was determined by the ratio of the net RFU value for N-(2,5-dimethoxyphenyl)-2-methylthieno[3,2-d]pyrimidin-4-amine or other test compound to that of control samples. The EC50 (nM) was determined by a sigmoidal dose-response calculation (Prism 3.0, GraphPad Software Inc.).
Consider `COc1cc(Nc2nc(C)nc3scc(C)c23)cc(OC)c1` [Example 51, N-(3,5-Dimethoxyphenyl)-2,5-dimethylthieno[2,3-d]pyrimidin-4-amine], for which the concentration for a half-maximal effect (EC50) (commonly the concentration at which the effect is half-maximal) came to 2490 nM.

As for `COc1cc(Nc2ncnc3sccc23)cc(OC)c1` [Example 45, N-(3,5-Dimethoxyphenyl)thieno[2,3-d]pyrimidin-4-amine], the EC50 is 87 nM.

Regarding `Cc1cc(C)cc(Nc2ncnc3ccsc23)c1` [Example 57, N-(3,5-Dimethylphenyl)thieno[3,2-d]pyrimidin-4-amine], the EC50 is more than 10000 nM.

`COc1cc(Nc2ncnc3cc(Br)sc23)cc(OC)c1` [Example 67, 6-Bromo-N-(3,5-dimethoxyphenyl)thieno[3,2-d]pyrimidin-4-amine]: the EC50 stood at 227 nM.

On to `COc1cc(Nc2nc(C)nc3cc(Br)sc23)cc(N(C)C)c1` [Example 66, 6-Bromo-N-(3-dimethylamino-5-methoxyphenyl)-2-methylthieno[3,2-d]pyrimidin-4-amine], for which the EC50 was determined as 65 nM.

With `CS(=O)(=O)c1cc(Nc2ncnc3ccsc23)cc(S(C)(=O)=O)c1` [Example 60, N-(3,5-Bis(methylsulfonyl)phenyl)thieno[3,2-d]pyrimidin-4-amine], the EC50 was more than 10000 nM.

`COc1cc(Nc2ncnc3sc(C)c(C)c23)cc(OC)c1` [Example 47, N-(3,5-Dimethoxyphenyl)-5,6-dimethylthieno[2,3-d]pyrimidin-4-amine]: the EC50 is more than 10000 nM.

With `COc1cc(Nc2nc(C)nc3ccsc23)cc(N(C)C)c1` [Example 63, N-(3-Dimethylamino-5-methoxyphenyl)-2-methylthieno[3,2-d]pyrimidin-4-amine], the 50% effective concentration (EC50) is 320 nM.

Consider `COc1cc(N)cc(Nc2ncnc3ccsc23)c1` [Example 68, N-(3-Amino-5-methoxyphenyl)thieno[3,2-d]pyrimidin-4-amine], for which the EC50 worked out at 2950 nM.

With `COc1cc(Nc2ncnc3scc(C)c23)cc(OC)c1` [Example 50, N-(3,5-Dimethoxyphenyl)-5-methylthieno[2,3-d]pyrimidin-4-amine], the EC50 is 4360 nM.

For the compound `COc1cc(Nc2ncnc3sc(C)cc23)cc(OC)c1` [Example 48, N-(3,5-Dimethoxyphenyl)-6-methylthieno[2,3-d]pyrimidin-4-amine], the EC50 amounted to 1990 nM.

With `COc1cc(Nc2ncnc3sc(-c4ccccc4)c(C)c23)cc(OC)c1` [Example 49, N-(3,5-Dimethoxyphenyl)-5-methyl-6-phenylthieno[2,3-d]pyrimidin-4-amine], the EC50 is more than 10000 nM.

Take `COc1cc(Nc2ncnc3cc(Br)sc23)cc(N(C)C)c1` [Example 64, 6-Bromo-N-(3-dimethylamino-5-methoxyphenyl)thieno[3,2-d]pyrimidin-4-amine]: the EC50 came out at 131 nM.

A further test deals with human hepatocellular carcinoma cell line SNU398. Kind of test: Caspase cascade activation in SNU398 cells. In kind it is cell-based. Particulars: Homo sapiens, SNU-398, 48 h, read-out: Caspase activation Potency EC50 SNU398 (48 h). Here is the method:
as §1, §2, §3
Turning to `COc1cc(Nc2nc(C)nc3scc(C)c23)cc(OC)c1` [Example 51, N-(3,5-Dimethoxyphenyl)-2,5-dimethylthieno[2,3-d]pyrimidin-4-amine], the EC50 amounted to 2640 nM.

With `COc1cc(Nc2ncnc3sccc23)cc(OC)c1` [Example 45, N-(3,5-Dimethoxyphenyl)thieno[2,3-d]pyrimidin-4-amine], the EC50 is more than 10000 nM.

With `Cc1cc(C)cc(Nc2ncnc3ccsc23)c1` [Example 57, N-(3,5-Dimethylphenyl)thieno[3,2-d]pyrimidin-4-amine], the EC50 was more than 10000 nM.

Turning to `COc1cc(Nc2ncnc3cc(Br)sc23)cc(OC)c1` [Example 67, 6-Bromo-N-(3,5-dimethoxyphenyl)thieno[3,2-d]pyrimidin-4-amine], the EC50 stood at 4950 nM.

`COc1cc(Nc2nc(C)nc3cc(Br)sc23)cc(N(C)C)c1` [Example 66, 6-Bromo-N-(3-dimethylamino-5-methoxyphenyl)-2-methylthieno[3,2-d]pyrimidin-4-amine]: the EC50 turned out to be 297 nM.

As for `CS(=O)(=O)c1cc(Nc2ncnc3ccsc23)cc(S(C)(=O)=O)c1` [Example 60, N-(3,5-Bis(methylsulfonyl)phenyl)thieno[3,2-d]pyrimidin-4-amine], the EC50 is more than 10000 nM.

Consider `COc1cc(Nc2ncnc3sc(C)c(C)c23)cc(OC)c1` [Example 47, N-(3,5-Dimethoxyphenyl)-5,6-dimethylthieno[2,3-d]pyrimidin-4-amine], for which the EC50 is more than 10000 nM.

Turning to `COc1cc(Nc2nc(C)nc3ccsc23)cc(N(C)C)c1` [Example 63, N-(3-Dimethylamino-5-methoxyphenyl)-2-methylthieno[3,2-d]pyrimidin-4-amine], the EC50 was determined as 706 nM.

As for `COc1cc(N)cc(Nc2ncnc3ccsc23)c1` [Example 68, N-(3-Amino-5-methoxyphenyl)thieno[3,2-d]pyrimidin-4-amine], the EC50 worked out at 5080 nM.

Turning to `COc1cc(Nc2ncnc3scc(C)c23)cc(OC)c1` [Example 50, N-(3,5-Dimethoxyphenyl)-5-methylthieno[2,3-d]pyrimidin-4-amine], the EC50 is not below 10000 nM.

Turning to `COc1cc(Nc2ncnc3sc(C)cc23)cc(OC)c1` [Example 48, N-(3,5-Dimethoxyphenyl)-6-methylthieno[2,3-d]pyrimidin-4-amine], the EC50 was more than 10000 nM.

For the compound `COc1cc(Nc2ncnc3sc(-c4ccccc4)c(C)c23)cc(OC)c1` [Example 49, N-(3,5-Dimethoxyphenyl)-5-methyl-6-phenylthieno[2,3-d]pyrimidin-4-amine], the half-maximal effective concentration (EC50) was more than 10000 nM.

Regarding `COc1cc(Nc2ncnc3cc(Br)sc23)cc(N(C)C)c1` [Example 64, 6-Bromo-N-(3-dimethylamino-5-methoxyphenyl)thieno[3,2-d]pyrimidin-4-amine], the EC50 was 565 nM.

The next test has as its system human colon carcinoma cell line HCT116. The test can be described thus: Caspase cascade activation in HCT116 cells. The format is cell-based. Particulars: Homo sapiens, HCT-116, 48 h, read-out: Caspase activation Potency EC50 HCT116 (48 h). How it is done: as §1, §2, §3
Consider `COc1cc(Nc2nc(C)nc3scc(C)c23)cc(OC)c1` [Example 51, N-(3,5-Dimethoxyphenyl)-2,5-dimethylthieno[2,3-d]pyrimidin-4-amine], for which the EC50 was determined as 3700 nM.

Regarding `COc1cc(Nc2ncnc3sccc23)cc(OC)c1` [Example 45, N-(3,5-Dimethoxyphenyl)thieno[2,3-d]pyrimidin-4-amine], the concentration for a half-maximal effect (EC50) was more than 10000 nM.

For the compound `Cc1cc(C)cc(Nc2ncnc3ccsc23)c1` [Example 57, N-(3,5-Dimethylphenyl)thieno[3,2-d]pyrimidin-4-amine], the EC50 is more than 10000 nM.

Take `COc1cc(Nc2ncnc3cc(Br)sc23)cc(OC)c1` [Example 67, 6-Bromo-N-(3,5-dimethoxyphenyl)thieno[3,2-d]pyrimidin-4-amine]: the EC50 was more than 10000 nM.

Consider `COc1cc(Nc2nc(C)nc3cc(Br)sc23)cc(N(C)C)c1` [Example 66, 6-Bromo-N-(3-dimethylamino-5-methoxyphenyl)-2-methylthieno[3,2-d]pyrimidin-4-amine], for which the EC50 was determined as 498 nM.

Take `CS(=O)(=O)c1cc(Nc2ncnc3ccsc23)cc(S(C)(=O)=O)c1` [Example 60, N-(3,5-Bis(methylsulfonyl)phenyl)thieno[3,2-d]pyrimidin-4-amine]: the EC50 was more than 10000 nM.

For `COc1cc(Nc2ncnc3sc(C)c(C)c23)cc(OC)c1` [Example 47, N-(3,5-Dimethoxyphenyl)-5,6-dimethylthieno[2,3-d]pyrimidin-4-amine], the EC50 is more than 10000 nM.

As for `COc1cc(Nc2nc(C)nc3ccsc23)cc(N(C)C)c1` [Example 63, N-(3-Dimethylamino-5-methoxyphenyl)-2-methylthieno[3,2-d]pyrimidin-4-amine], the EC50 amounted to 1260 nM.

Take `COc1cc(N)cc(Nc2ncnc3ccsc23)c1` [Example 68, N-(3-Amino-5-methoxyphenyl)thieno[3,2-d]pyrimidin-4-amine]: the EC50 was more than 10000 nM.

As to `COc1cc(Nc2ncnc3scc(C)c23)cc(OC)c1` [Example 50, N-(3,5-Dimethoxyphenyl)-5-methylthieno[2,3-d]pyrimidin-4-amine], the concentration giving a half-maximal response (EC50) was not below 10000 nM.

For the compound `COc1cc(Nc2ncnc3sc(C)cc23)cc(OC)c1` [Example 48, N-(3,5-Dimethoxyphenyl)-6-methylthieno[2,3-d]pyrimidin-4-amine], the EC50 is more than 10000 nM.

As to `COc1cc(Nc2ncnc3sc(-c4ccccc4)c(C)c23)cc(OC)c1` [Example 49, N-(3,5-Dimethoxyphenyl)-5-methyl-6-phenylthieno[2,3-d]pyrimidin-4-amine], the EC50 was more than 10000 nM.

Consider `COc1cc(Nc2ncnc3cc(Br)sc23)cc(N(C)C)c1` [Example 64, 6-Bromo-N-(3-dimethylamino-5-methoxyphenyl)thieno[3,2-d]pyrimidin-4-amine], for which the half-maximal effective concentration (EC50) stood at 1280 nM.
